# Laboratory results as given in patent US9517221B2, “(2R)-2-propyloctanoic acid for functional brain disease” (ONO PHARMACEUTICAL CO., LTD., priority 2006, dated 2016).
# Tests used:
# Format in all cases: in vivo, rat
# [1] = tested on: olfactory bulbectomized rats; test: Influence on hyperemotional score in olfactory bulbectomized rats (Test Example 4-2); details: oral once a day for 7 days; present tense
# Source text: Wistar male rats are used in the test. By fixing the head of each rat under pentobarbital sodium anesthesia to a brain stereotaxic apparatus, the head skin is incised and then holes are opened at right and left olfactory bulb regions using a dental drill to suck and remove the right and left olfactory bulbs using an aspirator. The head skin is stitched thereafter. In this connection, the suction and removal of olfactory bulbs are not carried out in the sham-operation group, and the head skin is stitched after opening holes at right and left olfactory bulb regions. The rats after extraction of the olfactory bulbs are put into a series of five stainless steel cages, each of which is partitioned into two parts with an acrylic board for individual rearing space, and individually reared for 2 weeks under a dark condition, and then subjected to the following tests of <4-2> and <4-3>.
# The vehicle and test drug are orally administered once a day repeatedly for 7 days. The evaluation is carried out under a quiet environment, before the grouping and on the 1st and 7th days after administration of the test drug. The degree of irritability is scored in accordance with the evaluation criteria shown below, before the grouping and before the administration of 7 days test drug administration, and after 1 hour of the administration of test drug administration of 1 day and 7 days. […]
# [2] = tested on: olfactory bulbectomized rats; test: Influence upon anxiolytic behavior on an elevated plus maze in olfactory bulbectomized rats (Test Example 4-3); details: once a day for 8 days; test 2 hours after administration; present tense
# Source text: Wistar male rats are used in the test. By fixing the head of each rat under pentobarbital sodium anesthesia to a brain stereotaxic apparatus, the head skin is incised and then holes are opened at right and left olfactory bulb regions using a dental drill to suck and remove the right and left olfactory bulbs using an aspirator. The head skin is stitched thereafter. In this connection, the suction and removal of olfactory bulbs are not carried out in the sham-operation group, and the head skin is stitched after opening holes at right and left olfactory bulb regions. […]
# An elevated plus maze apparatus consisting of a open arm without a wall and a closed arm having a wall is used in the test. […] The anxiolytic behavior is analyzed from the pictures of a video camera by a video picture behavior analysis device.
# The vehicle and test drug are repeatedly administered once a day for 8 days. […] After 2 hours of the administration, the animal is softly put on the platform toward one of the open arms and measured for 5 minutes. […] The items (1) to (6) shown below are measured using the video picture behavior analysis device, and (7) and (8) are counted after completion of the measurement. […]
# [3] = tested on: olfactory bulbectomized rats; test: Hyperemotional reactivity (hyperemotional score) of olfactory bulbectomized rats; parameters: key to Hyperemotional score (mean ± S. E.), One day administration, Before administration / Hyperemotional score (mean ± S. E.), One day administration, After administration / Hyperemotional score (mean ± S. E.), Seven days administration, Before administration / Hyperemotional score (mean ± S. E.), Seven days administration, After administration: irritability score per Gomita et al. (1983) criteria; details: for Hyperemotional score (mean ± S. E.), Seven days administration, After administration: 1 hour to 1 hour 10 minutes after 7 days administration; for Hyperemotional score (mean ± S. E.), Seven days administration, Before administration: before administration of the 7 days administration; for Hyperemotional score (mean ± S. E.), One day administration, After administration: 1 hour to 1 hour 10 minutes after 1 day administration; for Hyperemotional score (mean ± S. E.), One day administration, Before administration: baseline before grouping, 12 animals
# Description: SPF rats (Crlj: WI) were used in the test. The animal for olfactory bulbectomy was anesthetized with pentobarbital sodium (Nembutal R Injection, Dainippon Pharmaceutical, dose: 1 mL/kg (intraperitoneal administration)), and the head was fixed using a brain stereotaxic apparatus (ASI Instruments, Inc., NARISHIGE). After incising the head skin, holes are opened at right and left olfactory bulb regions of the skull using a dental drill (manufactured by MINITOR), and the right and left olfactory bulbs were removed by sucking them using an aspirator connected to a tip-removed oral sonde, and the head skin was stitched thereafter. In this connection, in the case of the animals for sham-operation, anesthesia, brain fixation and head skin incision were carried out in the same manner as in the animals for olfactory bulbectomy, holes are opened at right and left olfactory bulb regions of the skull and the head skin was stitched without carrying out suction removal of the olfactory bulbs. The rats after olfactory bulbectomy were put into a series of five stainless steel cages, each of which was partitioned into two parts with an acrylic board for individual rearing space, and individually reared under a dark condition. The rats were subjected to the following tests of (2) and (3).
# • (a) Sham-operation group (12 animals); • (b) Vehicle control group (12 animals); • (c) 3 mg/kg administration group (12 animals) of (2R)-2-propyloctanoic acid; • (d) 10 mg/kg administration group (12 animals) of (2R)-2-propyloctanoic acid; • (e) 10 mg/kg administration group (12 animals) of Milnacipran hydrochloride. [Drug Administration]
# As shown below, drug solution or vehicle was administered once a day for 8 days, a total of 8 times, at a respective liquid dose of 5 mL/kg. • (a) Sham-operation group: vehicle (0.1% by volume Tween 80) aqueous solution; • (b) Vehicle control group: vehicle (0.1% by volume Tween 80) aqueous solution; • (c) 3 mg/kg administration group of (2R)-2-propyloctanoic acid: a drug solution in which (2R)-2-propyloctanoic acid was prepared to be 0.6 mg/mL with the vehicle; • (d) 10 mg/kg administration group of (2R)-2-propyloctanoic acid: a drug solution in which (2R)-2-propyloctanoic acid was prepared to be 2.0 mg/mL with the vehicle; • (e) 10 mg/kg administration group of milnacipran hydrochloride: a drug solution in which Milnacipran hydrochloride was prepared to be 2.3 mg/mL with the vehicle (Milnacipran itself is included in 2.0 mg/mL). (2) Examination of the Activity for Hyperemotional Reactivity <Evaluation Method>
# Evaluation of the hyperemotional reactivity was carried out (1) before the grouping, (2) from 1 hour to 1 hour and 10 minutes after administration of the 1 day drug administration, (3) before administration of the 7 days administration and (4) from 1 hour to 1 hour and 10 minutes after the administration (a total of 4 times), by scoring the degree of irritability once a rat in accordance with the following evaluation criteria of hyperemotional reactivity (hyperemotional score: prepared based on the method of Gomita et al. (Folia Pharmacologica Japonica, 82, 267, 1983). Additionally, all of the conditions of the evaluation were shot and recorded using a video camera (SSC-DC430, SONY) and handled as reference data.
smiles,measurement,setting,value
CCCCCC[C@@H](CCC)C(=O)O [(2R)-2-propyloctanoic acid],Development of hyperemotionality versus vehicle group,[1],inhibits development of hyperemotionality
same,Anxiolytic behavior versus vehicle treating group,[2],suppresses the anxiolytic behavior
same,Development of hyperemotionality versus vehicle control group,"[3]; 1st day and 7th day of the administration, result in words",inhibited development of hyperemotionality
same,"Hyperemotional score (mean ± S. E.), Seven days administration, After administration",[3]; dose 3 mg/kg once a day,5.9 ± 1.5
same,"Hyperemotional score (mean ± S. E.), Seven days administration, Before administration",[3]; dose 3 mg/kg once a day,6.3 ± 1.0
same,"Hyperemotional score (mean ± S. E.), One day administration, After administration",[3]; dose 3 mg/kg,8.8 ± 1.4
same,"Hyperemotional score (mean ± S. E.), One day administration, Before administration",[3]; dose 3 mg/kg,20.0 ± 0.0
same,"Hyperemotional score (mean ± S. E.), Seven days administration, After administration",[3]; dose 10 mg/kg once a day,4.8 ± 0.8
same,"Hyperemotional score (mean ± S. E.), Seven days administration, Before administration",[3]; dose 10 mg/kg once a day,6.7 ± 1.4
same,"Hyperemotional score (mean ± S. E.), One day administration, After administration",[3]; dose 10 mg/kg,7.4 ± 0.9
same,"Hyperemotional score (mean ± S. E.), One day administration, Before administration",[3]; dose 10 mg/kg,20.0 ± 0.0
